Measured values taken from patent US20080051315A1 (priority 2003, published 2008).

How the values were obtained:
GRPR = GRPR (Mus musculus, UniProt P21729); format: cell-based
[1] = test system: pyramidal neurons in slices from GRPR knockout mice; format: cell-based, mouse
GABAA receptors = test: block of sIPSCs in pyramidal neurons of the lateral amygdala; format: cell-based, mouse; conditions: picrotoxin 50 uM; n=10; holding potential -70 mV
Description: Amygdala slices (250-300 um) were prepared from 3-5 week old control and GRPR knockout mice (littermates) with a vibratome. Slices were continuously superfused in solution containing (in mM): 119 NaCl, 2.5 KCl, 2.5 CaCl2,1.0 MgSO4, 1.25 NaH2PO4, 26.0 NaHCO3, 10 glucose, and equilibrated with 95% O2 and 5% CO2 [pH 7.3-7.4] at room temperature. Whole-cell recordings of evoked compound EPSCs or spontaneous GABA-mediated IPSCs were obtained from pyramidal cells in the lateral amygdala under visual guidance (DIG/ infrared optics) with an EPC-9 amplifier and Pulse v8.09 software (HEKA Elektronik). […] Series resistance was monitored throughout experiment and was in a range of […]. […] The EPSC amplitudes were measured as the difference between the mean current during a prestimulus baseline and the mean current over a 2 ms-window at the peak of the response. […]
The spontaneous IPSCs were recorded on videotape for off line analysis in the presence of 20 uM CNQX. Data were analyzed with the Mini Analysis Program v5.2.4 (Synaptosoft Inc., Decatur, Ga.; Bolshakov et al., 2000).
We recorded spontaneous inhibitory postsynaptic currents (sIPSCs) in the pyramidal neurons having blocked the AM PA (a-amino-3-hydroxy-5-methyl-4-isoxazolepropionic acid) receptor-mediated responses (FIG. 2) with CNQX (6-cyano-7-nitroquinoxaline-2,3-dione, 20 uM).

GRPR, sequence (P21729 whole entry): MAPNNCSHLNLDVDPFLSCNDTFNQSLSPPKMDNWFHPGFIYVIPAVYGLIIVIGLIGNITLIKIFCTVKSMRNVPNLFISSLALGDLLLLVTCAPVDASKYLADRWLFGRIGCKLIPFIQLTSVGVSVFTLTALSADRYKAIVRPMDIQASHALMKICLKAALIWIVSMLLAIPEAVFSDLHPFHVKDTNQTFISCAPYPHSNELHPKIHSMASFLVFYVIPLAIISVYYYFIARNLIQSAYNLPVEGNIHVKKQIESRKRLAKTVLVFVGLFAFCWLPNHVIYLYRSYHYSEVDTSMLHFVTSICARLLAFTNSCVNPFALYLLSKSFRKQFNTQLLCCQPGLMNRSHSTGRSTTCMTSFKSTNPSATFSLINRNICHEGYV

With `NC1=N[C@H](O)[C@H]2[C@H]3O[C@]4(O)O[C@@H]([C@@H](O)[C@@]2(N1)[C@@H]4O)[C@]3(O)CO` [TTX, tetrodotoxin] the “effect of GRP on frequency of sIPSCs in the presence of TTX” value (GRPR) was “blocking the effects of the agonist”.

For gastrin-releasing peptide [GRP], the “effect of GRP on frequency of sIPSCs (in words)” value [1] was “failed to increase” and the “frequency of sIPSCs” value [1] was 5.64±0.67 Hz.

In the case of picrotoxin, the “block of sIPSCs” value (GABAA receptors) is reported as “completely blocked”.
